Assay results: patent US20250213587A1, “ITK INHIBITORS FOR INCREASING TH1 CELL ACTIVITY” (Corvus Pharmaceuticals, Inc., priority 2022, published 2025)
“Also recorded” adds a separate entry of the source.

Assays:
ITK = target: T1, ITK (Homo sapiens, UniProt Q08881); assay: Jump dilution assay; format: binding; parameters: purchased Invitrogen
T1 sequence (Q08881 1-620): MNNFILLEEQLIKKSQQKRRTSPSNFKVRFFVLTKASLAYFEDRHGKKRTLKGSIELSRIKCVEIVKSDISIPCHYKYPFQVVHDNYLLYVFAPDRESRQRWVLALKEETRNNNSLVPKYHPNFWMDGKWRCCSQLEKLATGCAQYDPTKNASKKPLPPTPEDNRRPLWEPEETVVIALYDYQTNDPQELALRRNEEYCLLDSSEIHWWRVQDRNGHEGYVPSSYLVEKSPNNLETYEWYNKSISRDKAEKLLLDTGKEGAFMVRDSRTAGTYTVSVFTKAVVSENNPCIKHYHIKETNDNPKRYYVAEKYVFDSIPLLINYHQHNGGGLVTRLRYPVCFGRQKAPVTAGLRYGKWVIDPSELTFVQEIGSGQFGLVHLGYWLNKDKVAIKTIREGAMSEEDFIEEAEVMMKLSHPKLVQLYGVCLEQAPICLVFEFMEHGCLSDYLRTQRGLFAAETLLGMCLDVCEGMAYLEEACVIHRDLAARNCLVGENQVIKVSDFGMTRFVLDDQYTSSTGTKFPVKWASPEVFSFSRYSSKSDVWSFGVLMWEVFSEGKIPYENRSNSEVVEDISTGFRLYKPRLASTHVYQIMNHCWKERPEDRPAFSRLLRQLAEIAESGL
Procedure: The assay format is similar to the Competitive Tracer-binding Assay and relies on the reversible binding of tracer 236 to recombinant tagged human ITK. […] The mixture was then filtered through a desalting column (Thermo Scientific, Zeba Spin Desalting Column, 40K MWCO) to remove unbound inhibitor. The assay was initiated immediately after the desalting step by diluting the eluate containing the inhibited kinase complex 50-fold into a solution of anti-tag antibody (2 nM final) and excess tracer 236 (40 nM final). Dissociation of inhibitor and binding of tracer was monitored immediately after assay initiation using an EnVision plate reader (excitation 340 nm, dual emission at 665 nm and 615 nm). Reagents including GST-tagged recombinant human ITK, Kinase tracer 236, Lanthascreen Eu-Anti-GST antibody and kinase buffer A were purchased from ThermoFisher Scientific/Invitrogen. Each data point represents the mean of technical triplicates. Equation 3 was fitted to the BMS-509744 data to obtain the rate constant using GraphPad Prism from which the half-life was calculated.

other TEC kinases = details: literature; cited from earlier work

Row | SMILES | reversibility of ITK inhibition on dilution (ITK; dilution into competitive probe) | half-life of inhibitor-ITK complex (ITK; dilution into excess tracer 236) | inhibition of other TEC kinases (other TEC kinases)
1 | COc1cc(C)c(Sc2cnc(NC(=O)c3ccc(CNC(C)C(C)(C)C)cc3)s2)cc1C(=O)N1CCN(C(C)=O)CC1 (stereo not drawn) [BMS-509744, reference compound] | reversible; also recorded: rapid dissociation | 2.6 min | 
2 | C=CC(=O)N1CCC[C@@H]1Cn1c(NC(=O)c2ccc(C(F)F)s2)nc2cc(CN[C@@H](C)C(C)(C)C)ccc21 [PRN694] |  |  | significant inhibition
